Reference: patent US20250231157A1, “METHOD FOR DETERMINING THE PARTITION OF NAPHTHENIC ACIDS FROM A PRODUCTION WATER MIMICKING SYSTEM AND MIMICKING SYSTEM” (PETRÓLEO BRASILEIRO S.A. – PETROBRAS, priority 2023, published 2025)

Key:
[1] = Partition equilibrium with addition of calcium and strontium salts to the aqueous phase; assay type: physicochemical; conditions: for Effect of strontium ions on migration to the aqueous phase: strontium 400-2600 mg·L^−1
Protocol: The addition of salts to the reaction system is of fundamental importance when one intends to mimic field conditions. In this sense, in addition to continuing the study of the salinity effect (Example 4), the insertion of salts containing Ca^2+ and Sr^2+ ions, known to be present in seawater, was tested. To this end, the projects were based on the literature (Zheng, J. et al. Offshore produced water management: A review of current practice and challenges in harsh/Arctic environments. Mar. Pol. Bul. 2016, 104, 7-19) and four concentrations of each of the two ions were evaluated (400.0, 1200.0, 2600.0 and 9000.0 mg·L^−1), maintaining salinity at 3.5% (m·v^−1).
In short, the experimental results were generated in triplicate, using 99% NaCl to add salinity to the aqueous fraction and PA calcium chloride and PA strontium chloride to add calcium and strontium, respectively.
The addition of calcium and strontium to the reaction system, in the form of salts, aims at mimicking the real scenario in which both species are present (regardless of the salinity of the medium), especially in the well condition. This study aimed at understanding the effect (on the migration of acids to the organic phase) of this ion in the system also at concentrations higher than 10 mM. Finally, the experiments (in triplicate) with divalent strontium ions followed the same rationale.

[2] = Control experiments: availability of the species in alkaline aqueous medium without using the reactor; assay type: physicochemical; conditions: acid solubilized directly in aqueous phase, no reactor
Protocol: Previously, the back titration procedure was internalized and optimized (Example 1), ensuring that the reproducibility of the measurements was adequate (standard deviation values below 10%, for example) and that the recoveries were close to what was expected based on the purity of the reagents (i.e., close to or above 90%). […] Control experiments were performed (measuring the availability of the species in an aqueous medium, without using the reactor) by solubilizing the organic acid directly in the aqueous phase and titrating a 10.0 mL aliquot; the same way, experiments were performed in the reactor based on the standardization of heptol and salinity already discussed (3.5%).

[3] = Partition equilibrium in the presence of surfactants (TBA, CTA, TMA); assay type: physicochemical
Excerpt: The presence of chemical compounds usually added in the chain of unit operations of oil extraction and production, such as demulsifiers and surfactants, can affect the partition equilibrium of species in this water/oil system. In order to understand the extent of this effect, as well as discern the relevance of the chemical structure on this effect, the following items were chosen: • Dissolvan 961 (Clariant), composed of oil hydrocarbons (CAS 918-811-1) and ethanol (CAS 64-17-5); • Dissolvan 974 (Clariant), composed of EO-PO block polymer poly adducts and Bisphenol-A-diglycidyl ether (CAS 68123-18-2) and ethanol (CAS 64-17-5); • Tetrabutylammonium chloride (CAS 1112-67-0), 97% purity; • Cetyltrimethylammonium chloride (CAS 112-02-7), 25% in water; and • Trimethylammonium chloride (CAS 593-81-7), 98% purity.
For this study, the experiments (in triplicate) used between 100.0 and 1000.0 mg·L^−1 of each compound, comparing the results with control tests (absence of the component), all with constant salinity at 3.5% (m·v^−1). Finally, neutralization titration with a standardized NaOH titrant solution was used to determine the effect on the partition equilibrium for four acidic species (the same as in the other examples, except for dicyclohexylacetic acid).
Considering the study with surfactants, the (individual) addition of three species to the control system was evaluated (tetrabutylammonium chloride (TBA), tetramethylammonium chloride (TMA) and cetyltrimethylammonium chloride (CTA)). For this purpose, the surfactants have distinct chemical structures, namely the size of the side chain, and their eventual effect on the partition equilibrium of the acidic species was evaluated.

[4] = Partition equilibrium in the presence of demulsifiers (Dissolvan 961, Dissolvan 974)
[5] = Partition equilibrium under the influence of salinity (NaCl), glass reactor, neutralization titration; assay type: physicochemical
Protocol: The variation in salinity (and its effect on acidic species) is due to the large variation in salinity found between the portions of bottom-hole water, middle-well water and surface water. Thus, systems with salinity (i.e., NaCl) between 3.5 and 30% (m·v^−1) were tested in a glass reactor, and neutralization titration was performed (in triplicate analysis), as previously described. Furthermore, the experimental results were generated in triplicate, using 99% NaCl (Sigma-Aldrich) with five acidic species.

[6] = Partition equilibrium in reactor pressurized with CO2, in presence and absence of alkalinity (NaHCO3, Na2CO3), back titration
Protocol: In the initial tests, 100 mL of heptol and 300 mL of water (with or without salinity) were used, with the addition of acidic species in the organic phase, in order to verify migration to the aqueous phase. As a rule, the system was kept under agitation at 500 rpm for 8 min, followed by rest for 10 min and, finally, collection of 50.0 mL aliquots of the aqueous phase for titrimetric analysis.
A 316 stainless steel alloy reactor (Parr®) (capacity for 600 mL and operational up to 20 MPa pressure) was used. For this purpose, a temperature range between 25° C. and 80° C. and pressure between 0.1 MPa and 1.0 MPa were used, and the reactor was pressurized with CO2. Thus, the results were compared (in terms of migration of the acidic species (%, mol) by means of back titrations) and the influence of pressure and temperature on the partition was estimated, as well as possible synergistic effects with the sources of alkalinity added to the aqueous phase.

[7] = Partition equilibrium under the influence of salinity (NaCl), glass reactor, neutralization titration; assay type: physicochemical; conditions: Salinity 0 (%, m · m^−1) NaCl
[8] = Calcium 400 mg · L^−1, salinity 3.5%
[9] = Calcium 1200 mg · L^−1, salinity 3.5%
[10] = Calcium 2600 mg · L^−1, salinity 3.5%
[11] = Strontium 400 mg · L^−1, salinity 3.5%
[12] = Strontium 1200 mg · L^−1, salinity 3.5%
[13] = Strontium 2600 mg · L^−1, salinity 3.5%
[14] = Salinity 3.5 (%, m · m^−1) NaCl
[15] = Salinity 18.0 (%, m · m^−1) NaCl
[16] = Salinity 30.0 (%, m · m^−1) NaCl

In the case of `O=C(O)CCCCc1ccccc1` [5-Phenylpentanoic Acid, 5-phenylpentanoic acid], the Migration ([1]; Absence of ions, salinity 3.5%) was 10.4 %, mol, the Migration [1, 8] was 5.5 %, mol and the Migration [1, 9] was 4.7 %, mol. For the same compound, the Migration [1, 10] was 3.4 %, mol, the Migration [1, 11] was 4.4 %, mol and the Migration [1, 12] was 5.3 %, mol. The Migration [1, 13] was 4.8 %, mol, the “Effect of calcium ion on migration to the aqueous phase” value ([1]; calcium up to the maximum study concentrations) was “no variation in migration” and the “Effect of strontium ions on migration to the aqueous phase” value [1] was “decreased migration”. The “Availability (reference value)” value ([2]; Na2CO3 + NaHCO3 (3.48×10^−5 mol)) was 100.0 % mol, the “Availability (reference value)” value ([2]; NaHCO3 (3.45×10^−5 mol)) was 100.0 % mol and the Migration ([3]; Absence of surfactant, salinity 3.5%) was 10.4 %, mol. For the same compound, the Migration ([3]; CTA100 (cetyltrimethylammonium chloride 100 mg · L^−1)) was 11.5 %, mol, the Migration ([3]; CTA1000 (1000 mg · L^−1)) was 52.6 %, mol and the Migration ([3]; TBA100 (tetrabutylammonium chloride 100 mg · L^−1)) was 22.0 %, mol. The Migration ([3]; TBA1000 (1000 mg · L^−1)) was 21.6 %, mol, the Migration ([3]; TMA100 (trimethylammonium chloride 100 mg · L^−1)) was 9.4 %, mol and the Migration ([3]; TMA1000 (1000 mg · L^−1)) was 9.1 %, mol. For the same compound, the “Increase in migration to the aqueous phase with CTA” value ([3]; surfactant CTA, 1000 mg·L^−1) was roughly 500%, the “Increase in the tendency to migrate to the aqueous phase with TBA” value ([3]; surfactant TBA, noticeable from 100 mg·L^−1) was 100% and the “Effect of TMA on partition equilibrium” value ([3]; surfactant TMA) was “no observable effect”. The “Increase in migration to the aqueous phase with demulsifier” value ([4]; 50 mg·L^−1 of D961) was “approximately 100%”, the Migration ([4]; Absence of ions (no demulsifier), salinity 3.5%) was 10.4 %, mol and the Migration ([4]; D961 50 mg · L^−1) was 21.0 %, mol. The Migration ([4]; D961 100 mg · L^−1) was 21.0 %, mol, the Migration ([4]; D961 1000 mg · L^−1) was 23.0 %, mol and the Migration ([4]; D974 50 mg · L^−1) was 18.0 %, mol. The Migration ([4]; D974 100 mg · L^−1) was 16.0 %, mol, the Migration ([4]; D974 1000 mg · L^−1) was 14.6 %, mol and the “Salting out effect (reduction in the number of moles contained in the aqueous phase)” value ([5]; 30% (m·v^−1) NaCl versus tests without salinity) was roughly 38%. For the same compound, the Migration [5, 14] was 13.2 %, mol, the Migration [5, 15] was 15.4 %, mol and the Migration [5, 16] was 15.4 %, mol. The Migration ([6]; 25° C. and 1.0 MPa CO2, no alkalinity) was “did not generate quantifiable results”, the Migration ([6]; Na2CO3 + NaHCO3, 25° C. and 0.1 MPa) was 100.0 % mol and the Migration ([6]; Na2CO3 + NaHCO3, 25° C. and 1.0 MPa CO2) was 100.0 % mol. For the same compound, the Migration ([6]; Na2CO3 + NaHCO3, 80° C. and 1.0 MPa CO2) was 100.0 % mol, the Migration ([6]; NaHCO3, 25° C. and 0.1 MPa) was 100.0 % mol and the Migration ([6]; NaHCO3, 25° C. and 1.0 MPa CO2) was 100.0 % mol. The Migration ([6]; NaHCO3, 80° C. and 1.0 MPa CO2) was 100.0 % mol, the “Migration trend in the presence of alkalinity individually and together with pressure/temperature” value ([6]; NaHCO3 or Na2CO3 + NaHCO3, 0.1 or 1.0 MPa, 25 or 80 °C) was 100% and the Migration ([6]; Reference (heptol + 3.5% NaCl), no alkalinity) was 10.3 % mol. For the same compound, the Migration [7] was 24.4 %, mol.

In the case of `O=C(O)C(C1CCCCC1)C1CCCCC1` [Dicyclohexylacetic Acid, dicyclohexylacetic acid], the Migration ([1]; Absence of ions, salinity 3.5%) was 22.1 %, mol, the Migration [1, 8] was 20.7 %, mol and the Migration [1, 9] was 19.6 %, mol. For the same compound, the Migration [1, 10] was 31.8 %, mol, the Migration [1, 11] was 15.8 %, mol and the Migration [1, 12] was 20.0 %, mol. For the same compound, the Migration [1, 13] was 21.5 %, mol, the Migration ([1]; before addition of calcium) was 22 % (m·v^−1) and the “Effect of strontium ions on migration to the aqueous phase” value [1] was “no effect”. For the same compound, the “Migration to aqueous medium, approximate level over the salinity study” value ([5]; 0-30% NaCl) was “around 20%”, the “Effect of the addition of salinity on migration” value ([5]; 3.5-30% NaCl, 95% reliability) was “no significant effect” and the Migration [5, 14] was 18.1 %, mol. For the same compound, the Migration [5, 15] was 19.9 %, mol, the Migration [5, 16] was 21.5 %, mol and the Migration [7] was 22.0 %, mol.
